Test results reported in PMC6712885, “Improved homology modeling of the human & rat EP4 prostanoid receptors” (BMC Molecular and Cell Biology, 2019).
Values joined by “and” are separate entries in the source; they are usually repeats but may differ in a detail not shown here. Identical values can stand only once. Like-named read-outs stand apart in the source and are kept apart here.

Columns and labels:
hEP4 receptor [1] = molecular target: T1, hEP4 receptor (Homo sapiens, UniProt P35408); assay: Radioligand ([H^3]-PGE2) competition binding, hEP4 membranes of HEK293 cells; design: expressed in transfected cells; host or cells: HEK293; conditions: Human EP4 Receptor; displacement of 0.5 nM [H^3]-PGE2, Cheng Prusoff
T1 sequence (P35408 whole entry): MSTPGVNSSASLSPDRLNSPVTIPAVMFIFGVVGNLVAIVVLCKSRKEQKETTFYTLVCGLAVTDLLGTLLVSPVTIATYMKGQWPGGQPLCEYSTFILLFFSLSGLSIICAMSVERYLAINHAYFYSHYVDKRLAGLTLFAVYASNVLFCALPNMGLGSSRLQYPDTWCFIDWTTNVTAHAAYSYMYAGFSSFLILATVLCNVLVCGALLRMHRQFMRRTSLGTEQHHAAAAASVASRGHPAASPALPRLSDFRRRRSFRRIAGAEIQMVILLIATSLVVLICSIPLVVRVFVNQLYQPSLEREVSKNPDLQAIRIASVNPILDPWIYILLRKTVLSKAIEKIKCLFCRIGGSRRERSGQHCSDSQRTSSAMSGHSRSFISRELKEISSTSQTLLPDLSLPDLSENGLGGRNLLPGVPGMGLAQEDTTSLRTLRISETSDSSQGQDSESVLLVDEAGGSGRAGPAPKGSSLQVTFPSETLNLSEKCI
Method: (§1) Radioligand binding experiments were carried out versus the hEP4 and rEP4 receptors. […] We also implemented the rEP4 receptor binding studies. Equilibrium competition binding assays were conducted to determine the inhibition constants (Ki) for ligand interactions with EP4 receptors sourced from membranes (160,000×g) of HEK293 cells overexpressing recombinant hEP4 or rEP4 receptors. […] Assays were performed in 10 mM 2-(N-morpholino) ethanesulphonic acid (MES) buffer containing 1 mM EDTA and 10 mM MnCl2, pH 6.0, during 120 min at room temperature. Ki was calculated using the Cheng Prusoff equation where Ki = IC50/(1 […] L/Kd).

hEP4 receptor [2] = molecular target: T1, hEP4 receptor; assay: cell-based; format: cell-based; design: expressed in transfected cells; host or cells: HEK293T/17
Method: (§2) Human and rat EP4 receptors were expressed in HEK293T/17 cells separately by reverse transfection on 96-well plates with optimized amounts of cDNA expression constructs immobilized on the surface. Activation of EP4 receptor in this cell line was measured as an increase in cAMP levels using an ELISA kit (Cayman Chemical, Ann Arbor MI). In short, the transfection plates were seeded with 50,000–80,000 cells/well in reduced serum medium containing 0.5% FBS and incubated overnight at 37 °C with 5% CO2. Before stimulation with test compounds, media was aspirated from the wells and replaced with reduced serum media containing 0.5 mM 3-isobutyl 1-methylxanthine (IBMX). Compound dilution series were prepared in the same IBMX containing media at 2X final concentration and applied to the wells in equal volume. Stimulation media were aspirated from the plates after 30 min incubation with test compounds, and the plates with cells were placed on dry ice and then put into − 80 °C freezer for > 2 h. Cell lysates were prepared on thawed plates by adding 200 μl/well ice-cold ELISA buffer with 0.05% Tween-20 followed by titration. The cell lysates were then transferred to a polypropylene plate and clarified by centrifugation at 1000×g for 15 min at 4 °C. Supernatant was transferred into a pre-coated mouse Anti-Rabbit IgG ELISA plate together with serial dilutions of cAMP for a standard curve in triplicate. cAMP-acetylcholinesterase conjugate (cAMP tracer) was added, followed by cAMP EIA antiserum. Plates were incubated overnight with shaking. After washing 5 times in washing buffer, Ellman’s reagent was added to the well and shake for 90 min under cover before measuring absorbance at 405 nm on a plate reader.

Rat EP4 Receptor [3] = molecular target: T2, Rat EP4 Receptor (Rattus norvegicus, UniProt P43114); assay: EP4 receptor functional activation, cAMP ELISA in transfected HEK293T/17 cells; format: cell-based
T2 construct: expressed in transfected cells; host or cells: HEK293T/17
T2 sequence (P43114 whole entry): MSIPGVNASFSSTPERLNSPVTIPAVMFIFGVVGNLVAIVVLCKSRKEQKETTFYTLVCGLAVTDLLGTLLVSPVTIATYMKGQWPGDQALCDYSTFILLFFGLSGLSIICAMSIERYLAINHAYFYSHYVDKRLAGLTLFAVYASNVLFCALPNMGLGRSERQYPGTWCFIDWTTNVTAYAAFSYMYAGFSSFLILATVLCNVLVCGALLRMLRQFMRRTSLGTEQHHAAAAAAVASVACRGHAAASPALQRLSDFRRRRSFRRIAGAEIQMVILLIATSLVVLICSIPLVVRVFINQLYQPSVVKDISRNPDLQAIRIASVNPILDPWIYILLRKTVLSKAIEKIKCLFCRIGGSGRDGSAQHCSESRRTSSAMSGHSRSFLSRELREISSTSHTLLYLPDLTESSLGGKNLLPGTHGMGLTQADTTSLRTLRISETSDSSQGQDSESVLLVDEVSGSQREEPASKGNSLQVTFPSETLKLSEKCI
Method: as §2

rEP4 receptor = molecular target: T3, rEP4 receptor (Rattus norvegicus, UniProt P43114); assay: Radioligand ([H^3]-PGE2) competition binding, rEP4 membranes of HEK293 cells
T3 construct: expressed in transfected cells; host or cells: HEK293
T3 sequence (P43114 whole entry): as above
Method: as §1

hEP4 receptor [4] = molecular target: T1, hEP4 receptor; design: expressed in transfected cells; host or cells: HEK293T/17; conditions: reported within cited reference; cited from earlier work
Rat EP4 Receptor [5] = molecular target: T2, Rat EP4 Receptor; design: method as in PMID 29636218; conditions: reported within cited reference; cited from earlier work
hEP4 receptor [6] = molecular target: T1, hEP4 receptor; design: expressed in transfected cells; host or cells: HEK293T/17; conditions: reported within cited reference; cited from earlier work; remark: listed apart in the source
[7] = Human EP4 Receptor, cAMP response assay, value ± spread (n), read-out: EC50
[8] = Rat EP4 Receptor, displacement of 0.5 nM [H^3]-PGE2, Cheng Prusoff, read-out: Ki

| Structure (SMILES) | Ki (hEP4 receptor [1]) [nM] | EC50 (Rat EP4 Receptor [3]) [nM] | EC50 (hEP4 receptor [2]; [7]) | Ki (rEP4 receptor; [8]) [nM] | other results |
| --- | --- | --- | --- | --- | --- |
| CCCCC[C@H](O)/C=C/[C@H]1[C@H](O)CC(=O)[C@@H]1CCCCCCC(=O)O [PGE1, Prostaglandin E1] | 0.13 | – | – | – | EC50 (hEP4 receptor [2]): 0.42 ± 0.72 nM |
| COCc1cccc(C[C@H](O)/C=C/[C@H]2[C@H](O)CC(=O)[C@@H]2CCSCCCC(=O)O)c1 [Rivenprost (free Acid)] | 0.37 | 1.16 ± 0.29 | 0.142 nM and 0.14 nM | 0.35 | – |
| CCCCC[C@H](O)/C=C/[C@H]1[C@H](O)CC(=O)[C@@H]1C/C=C\CCCC(=O)O [PGE2, prostaglandin E2] | – | – | – | – | Ki (rEP4 receptor): 0.19 nM |
| CCOc1c2c(c(OCC)c3ccccc13)C(=O)N(c1ccc(CC(=O)O)cc1)C2 [CCL17464,2] | – | – | – | – | Ki (hEP4 receptor [4]): 19.9 nM |
| CCCCCCOc1c2c(c(OCCCCCC)c3ccccc13)C(=O)N(c1ccc(CC(=O)O)cc1)C2 [CCL17464,19] | – | – | – | – | Ki (hEP4 receptor [4]): > 6310 nM |
| CCCCC[C@H](O)/C=C/[C@H]1CCC(=O)[C@@H]1CCCCCCC(=O)O [11-deoxy-PGE1] | 0.13 | 1.13 ± 0.15 | 0.79 ± 0.19 nM | 0.21 | – |
| CCCCC(C)(O)C/C=C/[C@H]1[C@H](O)CC(=O)[C@@H]1CCCCCCC(=O)OC (mixture of isomers) [Misoprostol] | – | – | – | – | Ki (Rat EP4 Receptor [5]): 26300 nM; Ki (hEP4 receptor [6]): 4340 nM |
| CS(=O)(=O)NC(=O)CCC/C=C\C[C@H]1C(=O)C[C@@H](O)[C@@H]1/C=C/[C@@H](O)COc1ccccc1 [Sulprostone] | – | – | – | – | Ki (Rat EP4 Receptor [5]): 43600 nM; Ki (hEP4 receptor [6]): 3310 nM |
| CCCCC[C@H](O)/C=C/[C@H]1CCC(=O)[C@@H]1C/C=C\CCCC(=O)O [11-deoxy-PGE2] | 0.23 | 1.32 ± 0.24 | 0.66 ± 0.11 nM | 0.42 | – |
| CCCCC[C@H](O)/C=C/[C@H]1CCC(=O)N1CCCCCCC(=O)O [8-aza-11-deoxy-PGE1] | 1.7 | 2.64 ± 0.62 | 1.77 ± 0.32 nM | – | – |
| Cc1cc(Cl)ccc1-c1ccc([C@H](O)/C=C/[C@H]2CCC(=O)N2CCCCCCC(=O)O)cc1 [CAY10684] | 0.061 | 0.16 ± 0.06 | 0.18 ± 0.1 nM | 0.057 | – |
